Measured values taken from patent US20240002445A1, “TYROSYL-LOCK PEPTIDES” (The United States of America,as represented by the …, priority 2020, published 2024).
“Also recorded” adds a separate entry of the source. Bridge positions count the residues as written; N and C are the ends. Square brackets hold non-standard residues; d marks the D form. Ends that are not written are not given here. Peptide text beside a SMILES is read from it. pGlu = O=C1CC[C@@H](C(=O)O)N1

What was measured:
[1] = system: T1, recifin A (native, isolated from the marine sponge Axinella sp.)
T1 sequence: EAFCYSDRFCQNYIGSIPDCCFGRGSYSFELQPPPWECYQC

[2] = target: full-length recombinant human Tyrosyl-DNA phosphodiesterase 1 (TDP1) (human) (UniProt Q9NUW8); assay: cell-based or functional assay
FL-TDP1 = target: T2, FL-TDP1 (Homo sapiens, UniProt Q9NUW8); assay: FL-TDP1 FRET assay without TCEP (recifin A and analogues); type: biochemical; conditions: for TDP1 inhibitory activity (FRET assay): TCEP omitted; for IC50: IC50 μM (FL-TDP1 inhibitory activity), 1 nM FL-TDP1, 0.25 μM substrate, T=15 min, 1XPBS pH 7.4, 80 mM KCl, -TCEP, high-test concentration 20 μM
T2 construct: either full-length TDP1 or Δ1-147TDP1 was diluted to 1×
Protocol: For these FRET assays, TCEP was omitted from the reaction buffer. Peptides were evaluated for FL-TDP1 inhibitory activity using an 8-pt, 10^0.5 dilution series at a high-test concentration of 20 μM. RXN conditions: 1 nM FL-TDP1, 0.25 μM substrate, T=15 min.; rxn buffer (1XPBS pH 7.4, 80 mM KCl) (-TCEP). See FIGS. 21A and 21B and FIG. 22.

[3] = target: N-terminal truncated TDP1 (Δ147TDP1) (UniProt Q9NUW8); assay: cell-based or functional assay
Δ147TDP1 = target: T3, Δ147TDP1 (Homo sapiens, UniProt Q9NUW8); assay: FRET-based TDP1 enzymatic activity inhibition assay, N-terminally truncated TDP1; type: biochemical
T3 construct: a truncated catalytic domain of TDP1 lacking the N-terminal regulatory domain (Δ1-147)
Protocol: (§1) FRET-based TDP1 enzymatic activity inhibition assays were carried out as previously described (Bermingham, et al., SLAS Discov., 2472555217717200 (2017)). Briefly, for Michaelis-Menten analysis, an eight-point FRET substrate concentration response was used (from 0.01-3 μM substrate) in the presence of 0, 0.2, 0.5, 1, and 2 μM recifin A. Quadruplicate reactions were setup in which a 1.25× concentration of either full-length TDP1 or Δ1-147TDP1 was diluted to 1× by the addition of a […] solution of substrate and recifin A to reach a final concentration of 0.5 nM TDP1 (full length or truncated) and the indicated substrate and recifin A concentration in 1× Phosphate Buffered Saline (PBS) pH 7.4, 80 mM potassium chloride, 1 mM TCEP, referred to as “1× TDP1 buffer.” After dilution these reactions were transferred to a black small volume 384-well plate (Greiner Bio-One, Monroe, NC). Fluorescence measurements (excitation: 520 nm, emission: 550 nm) were taken at 30 sec intervals for 1 h using a i3x SpectraMax plate reader (Molecular Devices, Sunnyvale, CA). Reaction progression curves for each condition were examined for linearity over the time course and the reaction rate for each condition was determined by linear regression using GraphPad Prism software (version 8.3.1, San Diego, CA). Reaction rates were replotted in terms of substrate concentration, and kinetic parameters for each recifin A treatment concentration were calculated by non-linear regression (GraphPad Prism) according to the following equation: […]
(§2) For IC50 determinations, a 12-point concentration response curve was prepared over a recifin A concentration range of 0-15 μM. This was accomplished by diluting a 5X stock solution of recifin A and TDP1 FRET substrate into a stock solution of 1.25× TDP1 buffer containing 0.625 nM full-length TDP1 or Δ147TDP1, bringing the final concentration to 1× TDP1 buffer, 0.5 nM enzyme (or a no enzyme control), 1 μM FRET substrate, and 0-15 μM recifin A. Reactions were setup in triplicate using the same plates and plate reader described above for the kinetic measurements. Reaction wells were read at 0 (T0) and 15 (T15) min after initiation. The T15 data was background corrected by subtracting T0 fluorescence measurements. Corrected data was normalized to a control with no enzyme present (0% activity) and a vehicle control (100% activity). Recifin A concentrations were converted to logio-values and normalized data were fitted to the following equation by nonlinear regression (least squares fit with a variable slope) and an IC50 value was calculated using GraphPad Prism software: […]

TDP1 = TDP1 (Homo sapiens, UniProt Q9NUW8); assay: High-throughput biochemical assay for inhibition of TDP1 enzymatic activity (bioassay-guided fractionation); conditions: comparison among peptide constituents of fractions A-D of Axinella sp. aqueous extract
Protocol: The sponge Axinella sp., (Voucher #ID 0CDN7410, NSC #C020686) was harvested at a depth of 40 m at the Thunderbolt reef, south-southwest of Cape Recife Nature Reserve, Port Elizabeth, South Africa. A voucher specimen for this collection is maintained at the Smithsonian Institution (Suitland, MD). Aqueous extracts of Axinella sp. were provided by the Natural Products Branch of the National Cancer Institute and were prepared as previously reported (McCloud, Molecules, 15(7): 4526-63 (2010)). The dried extract was reconstituted in water at a concentration of 10 mg/mL and then subjected to vacuum-assisted chromatography using Bakerbond C4 wide-pore media (Mallinckrodt Baker, Inc., Phillipsburg, NJ). Compounds were eluted using a stepwise methanol gradient of five column volumes (CV) each of 100% water, 40% methanol, 60% methanol and 100% methanol, and the resulting fractions were evaporated under vacuum and then lyophilized to dryness. A high-throughput biochemical assay for inhibition of TDP1 enzymatic activity was utilized to track fraction activity (Bermingham, et al., SLAS Discov., 2472555217717200 (2017)). […]

full-length TDP1 [4] = target: T4, full-length TDP1 (Homo sapiens, UniProt Q9NUW8); assay: biochemical
Protocol: (§3) The reactions were carried out in a final volume of 10 μL in 1×LMP 1 reaction buffer (50 mM Tris-HCl, pH 7.5, 80 mM KCl, 2 mM EDTA, 1 mM DTT, 40 μg/mL BSA, 0.01% TWEEN 20) at room temperature for 15 minutes and terminated by adding 10 μ−L of 2×stop buffer (99.5% formamide, 10 mM EDTA, 0.01% methylene blue, 0.01% bromophenol blue).

carboxypeptidase Y = carboxypeptidase Y (Saccharomyces cerevisiae, UniProt P00729); conditions: native form, 1:18 enzyme to target protein by mass, 20 minutes at room temperature
trypsin = trypsin (Bos taurus, UniProt P00760); conditions: native form, 1:20 enzyme to target protein by mass, overnight at 37° C.
[5] = target: T5, human TDP1 complemented DT40 knockout whole cell extracts (hTDP1 WCE) (Homo sapiens, UniProt Q9NUW8); assay: TDP1 inhibition assay with radiolabeled oligonucleotide in whole cell extract; type: biochemical; conditions: 2 μg/mL hTDP1 WCE from TDP1-/- DT40 cells complemented with human TDP1
T5 construct: expressed in transfected cells; host or cells: TDP1-/- DT40 (chicken B-lymphocyte) cells complemented with human TDP1; whole cell extract
Protocol: as §3

[6] = Stability of recifin A to handling, solvents and RP-HPLC
[7] = target: pyroglutamate aminopeptidase (Pyrococcus furiosus, UniProt O73944)
full-length TDP1 [8] = target: T4, full-length TDP1; assay: FRET-based TDP1 enzymatic activity inhibition assay, full-length TDP1 (1x TDP1 buffer with TCEP); type: biochemical; parameters: either full-length TDP1 or Δ1-147TDP1 was diluted to 1×; conditions: for effect on Vmax of full-length TDP1 / effect on Km of full-length TDP1: steady-state analysis; for effect on Km of full-length TDP1: sub-micromolar concentrations of recifin A
Protocol: as §1, §2

chymotrypsin = chymotrypsin (Bos taurus, UniProt P00766); conditions: native form, 1:20 enzyme to target protein by mass, overnight at room temperature
[9] = full-length TDP1, Michaelis-Menten analysis, 0-2 μM recifin A

T3 sequence (Q9NUW8 148-608, stated change not applied): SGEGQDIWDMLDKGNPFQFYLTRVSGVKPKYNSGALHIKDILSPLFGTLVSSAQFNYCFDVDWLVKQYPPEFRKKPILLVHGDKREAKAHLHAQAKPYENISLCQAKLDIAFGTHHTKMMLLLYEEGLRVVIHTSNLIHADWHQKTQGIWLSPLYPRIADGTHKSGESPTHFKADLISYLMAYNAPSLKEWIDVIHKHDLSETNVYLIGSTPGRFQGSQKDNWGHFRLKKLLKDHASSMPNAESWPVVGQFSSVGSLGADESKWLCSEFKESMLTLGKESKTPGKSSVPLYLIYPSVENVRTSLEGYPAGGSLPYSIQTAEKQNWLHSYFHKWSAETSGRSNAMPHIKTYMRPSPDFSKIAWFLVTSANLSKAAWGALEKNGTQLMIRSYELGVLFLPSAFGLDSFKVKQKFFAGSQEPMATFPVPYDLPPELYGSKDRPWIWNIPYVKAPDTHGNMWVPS
full-length recombinant human Tyrosyl-DNA phosphodiesterase 1 (TDP1) (human), sequence (Q9NUW8 whole entry): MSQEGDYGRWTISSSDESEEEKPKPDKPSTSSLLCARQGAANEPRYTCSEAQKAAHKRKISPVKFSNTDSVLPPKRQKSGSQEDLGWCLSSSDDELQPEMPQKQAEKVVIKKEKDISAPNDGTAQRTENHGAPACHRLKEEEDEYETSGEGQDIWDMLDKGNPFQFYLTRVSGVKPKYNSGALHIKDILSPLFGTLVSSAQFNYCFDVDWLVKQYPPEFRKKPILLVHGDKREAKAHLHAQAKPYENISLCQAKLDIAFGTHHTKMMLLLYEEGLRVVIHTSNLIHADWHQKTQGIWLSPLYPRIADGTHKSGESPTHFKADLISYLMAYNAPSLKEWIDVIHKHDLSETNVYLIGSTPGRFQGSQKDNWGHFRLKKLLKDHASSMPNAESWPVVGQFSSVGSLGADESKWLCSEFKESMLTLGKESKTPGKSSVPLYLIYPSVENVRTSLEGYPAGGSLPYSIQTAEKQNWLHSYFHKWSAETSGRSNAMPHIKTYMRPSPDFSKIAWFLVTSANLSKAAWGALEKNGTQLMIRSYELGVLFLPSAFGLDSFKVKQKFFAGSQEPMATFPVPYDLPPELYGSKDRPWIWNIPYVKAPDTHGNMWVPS
T4 sequence (Q9NUW8 whole entry): as above
T2 sequence (Q9NUW8 whole entry): as above
pyroglutamate aminopeptidase, sequence (O73944 whole entry): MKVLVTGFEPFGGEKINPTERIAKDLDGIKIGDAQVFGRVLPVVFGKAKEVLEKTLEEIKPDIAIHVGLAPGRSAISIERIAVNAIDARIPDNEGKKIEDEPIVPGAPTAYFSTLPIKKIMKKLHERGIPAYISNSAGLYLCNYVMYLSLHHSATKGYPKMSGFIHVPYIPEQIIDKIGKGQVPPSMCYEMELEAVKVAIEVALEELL
N-terminal truncated TDP1 (Δ147TDP1), sequence (Q9NUW8 148-608, stated change not applied): as the sequence (Q9NUW8 148-608, stated change not applied) above
carboxypeptidase Y, sequence (P00729 112-532, species assumed): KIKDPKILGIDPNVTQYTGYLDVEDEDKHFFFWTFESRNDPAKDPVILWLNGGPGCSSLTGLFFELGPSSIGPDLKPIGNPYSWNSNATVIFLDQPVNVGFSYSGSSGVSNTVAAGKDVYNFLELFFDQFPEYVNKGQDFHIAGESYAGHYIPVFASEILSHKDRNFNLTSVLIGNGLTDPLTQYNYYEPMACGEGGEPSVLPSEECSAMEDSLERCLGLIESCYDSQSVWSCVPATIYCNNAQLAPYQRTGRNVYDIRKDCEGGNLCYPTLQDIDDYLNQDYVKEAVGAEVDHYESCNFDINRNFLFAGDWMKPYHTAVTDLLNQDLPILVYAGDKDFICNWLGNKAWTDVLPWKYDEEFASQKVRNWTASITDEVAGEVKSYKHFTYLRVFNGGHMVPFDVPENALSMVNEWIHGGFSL
trypsin, sequence (P00760 24-246): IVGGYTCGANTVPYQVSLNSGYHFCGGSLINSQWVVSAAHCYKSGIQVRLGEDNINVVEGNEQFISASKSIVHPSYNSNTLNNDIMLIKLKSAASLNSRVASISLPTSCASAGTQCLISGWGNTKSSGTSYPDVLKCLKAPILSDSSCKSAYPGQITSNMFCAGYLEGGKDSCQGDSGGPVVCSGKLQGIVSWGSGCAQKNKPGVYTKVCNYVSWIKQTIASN
TDP1, sequence (Q9NUW8 whole entry): as the sequence (Q9NUW8 whole entry) above
T5 sequence (Q9NUW8 whole entry): as above

## full-length recombinant human Tyrosyl-DNA phosphodiesterase 1 (TDP1)
[1]
  effect on the observed Vmax, FRET steady-state kinetics: approximately 1.6-fold higher
  recifin A-dependent increase in the Km for the substrate, FRET steady-state kinetics: approximately 6-fold higher

## [Pro1] recifin (peptide)
[2]
  IC50 µM, FL-TDP1 FRET inhibition assay without TCEP: 0.69 µM

## CC[C@H](C)[C@@H]1NC(=O)[C@H](Cc2ccc(O)cc2)NC(=O)[C@H](CC(N)=O)NC(=O)[C@H](CCC(N)=O)NC(=O)[C@@H]2CSSC[C@@H]3NC(=O)[C@H](CCC(=O)O)NC(=O)[C@H](Cc4c[nH]c5ccccc45)NC(=O)[C@@H]4CCCN4C(=O)[C@@H]4CCCN4C(=O)[C@@H]4CCCN4C(=O)[C@H](CCC(N)=O)NC(=O)[C@H](CC(C)C)NC(=O)[C@H](CCC(=O)O)NC(=O)[C@H](Cc4ccccc4)NC(=O)[C@H](CO)NC(=O)[C@H](Cc4ccc(O)cc4)NC(=O)[C@H](CO)NC(=O)CNC(=O)[C@H](CCCNC(=N)N)NC(=O)CNC(=O)[C@H](Cc4ccccc4)NC(=O)[C@H](CSSC[C@@H](C(=O)O)NC(=O)[C@H](CCC(N)=O)NC(=O)[C@H](Cc4ccc(O)cc4)NC3=O)NC(=O)[C@H](CSSC[C@H](NC(=O)[C@H](Cc3ccccc3)NC(=O)[C@H](C)N)C(=O)N[C@@H](Cc3ccc(O)cc3)C(=O)N[C@@H](CO)C(=O)N[C@@H](CC(=O)O)C(=O)N[C@@H](CCCNC(=N)N)C(=O)N[C@@H](Cc3ccccc3)C(=O)N2)NC(=O)[C@H](CC(=O)O)NC(=O)[C@@H]2CCCN2C(=O)[C@H]([C@@H](C)CC)NC(=O)[C@H](CO)NC(=O)CNC1=O [Truncated, Recifin (3-42)] (H-AFCYSDRFCQNYIGSIPDCCFGRGSYSFELQPPPWECYQC-OH; disulfide 3-19, 9-37, 20-40)
FL-TDP1
  TDP1 inhibitory activity (FRET assay): no TDP1 inhibitory activity
  IC50: > 10 µM

## recifin A (native, isolated from the marine sponge Axinella sp.) (peptide)
[2]
  IC50 µM, FL-TDP1 FRET inhibition assay without TCEP: 1.63 µM
  IC50, inhibition of TDP1 cleavage of a 5'-radiolabeled oligonucleotide DNA substrate containing a 3'-phosphotyrosyl residue (gel assay): 2400 nM
  apparent IC50, FRET-based TDP1 enzymatic activity inhibition assay: 190 nM
[3]
  maximal inhibition of enzymatic activity, FRET assay: 20%

## Recifin (3-42) (peptide)
[2]
  IC50 µM, FL-TDP1 FRET inhibition assay without TCEP: > 10 µM

## [pGlu]EAFCYSDRFCQNYIGSIPDCCFGRGSYSFELQPPPWECYQC-OH (disulfide 5-21, 11-39, 22-42) [Synthetic, Recifin]
FL-TDP1
  TDP1 inhibitory activity (FRET assay): have TDP1 inhibitory activity
  IC50: 0.5 µM

## [pGlu]EAFCYSDRFCQNYIGSIPDCCFGRGSYSFELQPPPWECYQC (disulfide 5-21, 11-39, 22-42) [recifin A]
Δ147TDP1; FRET assay, TDP1 lacking N-terminal regulatory domain (Δ1-147)
  effect on enzymatic activity of truncated TDP1 (Δ147TDP1): does not affect the enzymatic activity; also recorded: not affecting the activity
Δ147TDP1; at the highest concentration (1500 nM), read-out: maximal inhibition of Δ147TDP1
  inhibition at 1.5 µM: ~20%
Δ147TDP1; Δ147TDP1 FRET assay
  effect on Km of Δ147TDP1: did not affect
  effect on Vmax of Δ147TDP1: did not affect
TDP1
  TDP1 inhibitory activity of Axinella sp. peptides/fractions: most active
FL-TDP1
  IC50: 1.63 µM
full-length TDP1 [4]
  IC50: 2400 nM
Carboxypeptidase Y
  digestion with carboxypeptidase Y: resistant
trypsin
  digestion with trypsin: resistant
[5]
  inhibition of TDP1 processing of the radiolabeled oligonucleotide in whole-cell extract: retained the ability to inhibit
[6]; DTP extract preparation, drying under nitrogen gas at room temperature, freezing at -20° C., -80° C. and on dry ice, lyophilization, freezing and thawing
  activity after processing: still active
[6]; room temperature and 40° C., with and without 0.05% v/v TFA (pH approx. 2)
  stability during RP-HPLC procedures: stable
[6]; water, PBS pH 7.4, Tris HCl pH 8.0, methanol, acetonitrile, DMSO
  stability in solvents and buffers: stable
[7]; native form, 2 microgram peptide to 0.2 milliunits enzyme, PBS pH 7.4, 24 hour at 37 C
  digestion with pyroglutamate aminopeptidase: resistant
[7]; same conditions in phosphate buffer containing 10 mM DTT
  digestion with pyroglutamate aminopeptidase: N-terminal pyroglutamate residue: fully removed
full-length TDP1 [8]
  IC50: 190 nM
  effect on Vmax of full-length TDP1: modest increase
  effect on Km of full-length TDP1: increased
full-length TDP1 [8]; [9]
  increase in Km for the substrate: approximately 6 fold
  increase in observed Vmax: approximately 1.6 fold
full-length TDP1 [8]; listed as Recifin A
  effect on Km of full-length TDP1: in-creased
  effect on Vmax of full-length TDP1: in-creased
chymotrypsin
  digestion with chymotrypsin: resistant

## synthetic recifin A (peptide)
[2]
  IC50 µM, FL-TDP1 FRET inhibition assay without TCEP: 0.5 µM

## [Ala10] recifin (peptide)
[2]
  IC50 µM, FL-TDP1 FRET inhibition assay without TCEP: > 10 µM

## N-terminal truncated TDP1 (Δ147TDP1)
[1]
  Km and Vmax of the Δ147TDP1 FRET assay: recifin A had overlapping 95% confidence intervals for both Km and Vmax with the untreated controls, indicating that recifin A does not affect the enzymatic activity of truncated TDP1
